{"source": "ChEMBL document CHEMBL1151663", "about": "“Further explorations of unnatural alkaloids” (J Nat Prod, 1985)", "key": {"[1]": {"target": "T1, MAO-B (amine oxidase [flavin-containing] B) (Homo sapiens, UniProt P27338)", "T1 sequence (P27338 whole entry)": "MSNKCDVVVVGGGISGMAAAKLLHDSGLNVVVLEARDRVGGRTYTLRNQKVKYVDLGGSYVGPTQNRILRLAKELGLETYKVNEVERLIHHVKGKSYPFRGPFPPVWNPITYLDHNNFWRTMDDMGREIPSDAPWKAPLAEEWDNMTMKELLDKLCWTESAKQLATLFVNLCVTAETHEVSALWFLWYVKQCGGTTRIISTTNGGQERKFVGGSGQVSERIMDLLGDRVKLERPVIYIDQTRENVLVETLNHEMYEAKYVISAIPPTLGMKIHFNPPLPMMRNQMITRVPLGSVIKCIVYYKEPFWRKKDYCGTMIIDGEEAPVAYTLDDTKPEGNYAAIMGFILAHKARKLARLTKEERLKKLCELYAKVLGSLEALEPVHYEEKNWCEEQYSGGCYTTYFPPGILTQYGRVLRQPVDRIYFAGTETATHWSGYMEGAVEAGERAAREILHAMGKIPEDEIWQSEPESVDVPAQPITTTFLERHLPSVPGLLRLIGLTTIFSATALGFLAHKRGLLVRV", "experiment": "Inhibition of human liver MAOB at 1 mM relative to MPTP"}, "[2]": {"target": "T2, Amine oxidase [flavin-containing] B (Homo sapiens, UniProt P27338)", "T2 sequence (P27338 whole entry)": "T1 sequence (P27338 whole entry)", "experiment": "Activity of human liver MAOB assessed as specific activity at 1 mM", "conditions": "1000 µM"}, "Mus musculus": {"species_on_record": "Mus musculus", "experiment": "Analgesic activity in mouse by hot plate test", "format": "functional, organism-based"}, "[3]": {"experiment": "Toxicity in intramuscular dosed mouse", "format": "organism-based", "conditions": "in vivo, im"}, "Rattus norvegicus": {"species_on_record": "Rattus norvegicus", "experiment": "Displacement of [3H]colchicine from rat brain tubulin at 25 uM"}}, "note": "Calls of active or inactive are those of the source. The calls are words filed in the database; no cut-off is given here.", "data": [{"smiles": "CCN1CC=C(c2ccccc2)CC1", "values": [{"measurement": "inhibition at 1000 µM", "setting": "[1]", "value": 10.4, "unit": "%"}, {"measurement": "Activity", "setting": "[2]", "value": 8.82, "unit": "nmol/min/mg"}]}, {"smiles": "CC1CN(C)CC=C1c1ccccc1", "note": "(centres undefined)", "values": [{"measurement": "inhibition at 1000 µM", "setting": "[1]", "value": 13.4, "unit": "%"}, {"measurement": "Activity", "setting": "[2]", "value": 11.4, "unit": "nmol/min/mg"}]}, {"smiles": "C1=C(c2ccccc2)CCN(CC2CC2)C1", "values": [{"measurement": "Activity", "setting": "[2]", "value": "< 5", "unit": "nmol/min/mg"}]}, {"smiles": "CN1CC[C@]2(C)c3cc(O)ccc3N(C)[C@H]12", "values": [{"measurement": "Activity", "setting": "Mus musculus", "value": "inactive"}]}, {"smiles": "CC1=C(c2ccccc2)CCN(C)C1", "values": [{"measurement": "inhibition at 1000 µM", "setting": "[1]", "value": 6.2, "unit": "%"}, {"measurement": "Activity", "setting": "[2]", "value": 5.3, "unit": "nmol/min/mg"}]}, {"smiles": "CN1CC=CC(c2ccccc2)C1", "note": "(centres undefined)", "values": [{"measurement": "Activity", "setting": "[2]", "value": "< 5", "unit": "nmol/min/mg"}]}, {"smiles": "C/C=C/C(=O)N[C@H]1CCc2cc(OC)c(OC)c(OC)c2-c2ccc(OC)c(=O)cc21", "values": [{"measurement": "LD50", "setting": "[3]", "value": 3.4, "unit": "µmol/kg"}, {"measurement": "inhibition", "setting": "Rattus norvegicus", "value": 67, "unit": "%"}]}, {"smiles": "CC(C)N1CC=C(c2ccccc2)CC1", "values": [{"measurement": "Activity", "setting": "[2]", "value": "< 5", "unit": "nmol/min/mg"}]}, {"smiles": "CCCN1CC=C(c2ccccc2)CC1", "values": [{"measurement": "Activity", "setting": "[2]", "value": "< 5", "unit": "nmol/min/mg"}]}, {"smiles": "CN1CC[C@@]2(C)c3cc(O)ccc3N(C)[C@@H]12", "values": [{"measurement": "Activity", "setting": "Mus musculus", "value": "Active"}]}, {"smiles": "CN1CC=C(c2ccc(O)cc2)CC1", "values": [{"measurement": "Activity", "setting": "[2]", "value": "< 5", "unit": "nmol/min/mg"}]}, {"smiles": "CN1CCC=C(c2ccccc2)C1", "values": [{"measurement": "Activity", "setting": "[2]", "value": "< 5", "unit": "nmol/min/mg"}]}, {"smiles": "COc1cc2c(c(OC)c1OC)-c1ccc(OC)c(=O)cc1[C@@H](NC(C)=O)CC2", "note": "[COLCHICINE]", "values": [{"measurement": "LD50", "setting": "[3]", "value": 3, "unit": "µmol/kg"}]}, {"smiles": "CN1CC=C(c2ccc(Cl)cc2)CC1", "values": [{"measurement": "inhibition at 1000 µM", "setting": "[1]", "value": 6.8, "unit": "%"}, {"measurement": "Activity", "setting": "[2]", "value": 5.8, "unit": "nmol/min/mg"}]}, {"smiles": "CCCC(=O)N[C@H]1CCc2cc(OC)c(OC)c(OC)c2-c2ccc(OC)c(=O)cc21", "values": [{"measurement": "inhibition", "setting": "Rattus norvegicus; tested as the 2H-labelled form", "value": 79, "unit": "%"}]}, {"smiles": "C1=C(c2ccccc2)CCN(Cc2ccccc2)C1", "values": [{"measurement": "Activity", "setting": "[2]", "value": "< 5", "unit": "nmol/min/mg"}]}, {"smiles": "C=CC(=O)N[C@H]1CCc2cc(OC)c(OC)c(OC)c2-c2ccc(OC)c(=O)cc21", "values": [{"measurement": "LD50", "setting": "[3]", "value": 17.4, "unit": "µmol/kg"}, {"measurement": "inhibition", "setting": "Rattus norvegicus", "value": 82, "unit": "%"}]}, {"smiles": "C=CCN1CC=C(c2ccccc2)CC1", "values": [{"measurement": "Activity", "setting": "[2]", "value": "< 5", "unit": "nmol/min/mg"}]}, {"smiles": "C1=C(c2ccccc2)CCNC1", "values": [{"measurement": "inhibition at 1000 µM", "setting": "[1]", "value": 68.8, "unit": "%"}, {"measurement": "Activity", "setting": "[2]", "value": 58.6, "unit": "nmol/min/mg"}]}, {"smiles": "CCCCN1CC=C(c2ccccc2)CC1", "values": [{"measurement": "Activity", "setting": "[2]", "value": "< 5", "unit": "nmol/min/mg"}]}, {"smiles": "CN1CC=C(c2ccccc2)CC1", "values": [{"measurement": "inhibition at 1000 µM", "setting": "[1]", "value": 100, "unit": "%"}, {"measurement": "Activity", "setting": "[2]", "value": 85.2, "unit": "nmol/min/mg"}]}]}
